In one data set the test system is troponin. Particulars: racemic mixture; cited from earlier work.
Data set [1] can be described thus: Pharmacokinetic study of levosimendan capsules, single oral dose, in healthy volunteers. Particulars: from oral compositions comprising substantially pure crystalline polymorphic form I. Format: in vivo, human. As to the method:
Pharmacokinetic parameters of two different polymorphs, (I) and (II), of levosimendan in healthy volunteers after a single oral dose of 2 mg of levosimendan capsule was studied. The formulations of hard gelatin capsules (size 3) A and B were the following:
The small value of Tmax indicates rapid absorption of the drug into plasma.

In a further data set the test system is intestinal bacteria. Particulars: oral administration; by intestinal bacteria; cited from earlier work.

Regarding `CC1CC(=O)NN=C1c1ccc(NN=C(C#N)C#N)cc1` (racemic) [compound (I), [[4-(1,4,5,6-tetrahydro-4-methyl-6-oxo-3-pyridazinyl)phenyl]hydrazono]propanedinitrile], in the data set with troponin, the “calcium dependent binding to troponin” value is listed as “significant calcium dependent binding to troponin”. As for `CC1CC(=O)NN=C1c1ccc(NN=C(C#N)C#N)cc1` (single isomer, unassigned; (-)) [levosimendan, (−)-[[4-(1,4,5,6-tetrahydro-4-methyl-6-oxo-3-pyridazinyl)phenyl]hydrazono]propanedinitrile], in data set [1], the “dissolution and absorption into plasma” value is “rapidly dissolved and absorbed into plasma”. Moreover, in the data set on intestinal bacteria, the “metabolization in the lower gastrointestinal tract” value was “susceptible to metabolization in the lower gastrointestinal tract by intestinal bacteria”.

The values are drawn from US6355269B1, “Oral compositions of levosimendan” (Orion Corporation, priority 1997, dated 2002).
